Measurements published in patent publication US9505750B2, “5-aminocyclylmethyl-oxazolidin-2-one derivatives” (priority 2007, dated 2016).
Values after ≈ are worked out from the molar mass of the structure shown.

Each compound was assayed on M. catarrhalis A894 (assay: MIC determination by microdilution in cation-adjusted Mueller-Hinton Broth (NCCLS)). Conditions: Moraxella catarrhalis, pH 7.2-7.3.
Type: cell-based
Protocol: These assays have been performed following the description given in “Methods for dilution Antimicrobial Susceptibility Tests for Bacteria that Grow Aerobically, 4th ed.; Approved standard: NCCLS Document M7-A4; National Committee for Clinical Laboratory Standards: Villanova, Pa., USA, 1997”. Minimal inhibitory concentrations (MICs; mg/l) were determined in cation-adjusted Mueller-Hinton Broth (BBL) by a microdilution method following NCCLS guidelines (National Committee for Clinical Laboratory Standards. Methods for Dilution Antimicrobial Susceptibility). The pH of the test medium was 7.2-7.3. All Example compounds were tested against several Gram-positive and Gram-negative bacteria.
`COc1cnc2cccc(C(O)C3(O)CCN(C[C@@H]4CN(c5ccc6c(c5)NC(=O)CS6)C(=O)O4)CC3)c2n1` (mixture of isomers) [Example 13, 6-((R)-5-{4-hydroxy-4-[(RS)-hydroxy-(3-methoxy-quinoxalin-5-yl)-methyl]-piperidin-1-ylmethyl}-2-oxo-oxazolidin-3-yl)-4H-benzo[1,4]thiazin-3-one] gave an MIC of 0.5 µg/mL.
`COc1ccc2ncnc(O[C@@H]3CCN(C[C@@H]4CN(c5ccc6c(c5)NC(=O)CS6)C(=O)O4)C3)c2c1` [Example 2, 6-{(R)-5-[(R)-3-(6-methoxy-quinazolin-4-yloxy)-pyrrolidin-1-ylmethyl]-2-oxo-oxazolidin-3-yl}-4H-benzo[1,4]thiazin-3-one] showed an MIC of at most 0.031 µg/mL.
In the case of `COc1ccc2nccc(NC3CCN(C[C@@H]4CN(c5ccc6c(c5)NC(=O)CS6)C(=O)O4)CC3)c2n1` [Example 40, 6-{(R)-5-[4-(6-methoxy-[1,5]naphthyridin-4-ylamino)-piperidin-1-ylmethyl]-2-oxo-oxazolidin-3-yl}-4H-benzo[1,4]thiazin-3-one], the MIC is reported as at most 0.031 µg/mL.
Work on `COc1ccc2nccc(NC3CN(C[C@@H]4CN(c5ccc6c(c5)NC(=O)CO6)C(=O)O4)C3)c2n1` [Example 24, 6-{(R)-5-[3-(6-methoxy-[1,5]naphthyridin-4-ylamino)-azetidin-1-ylmethyl]-2-oxo-oxazolidin-3-yl}-4H-benzo[1,4]oxazin-3-one] yielded an MIC of at most 0.031 µg/mL.
For `COc1ccc2ncc(F)c(CNC3CN(C[C@@H]4CN(c5ccc6c(c5)NC(=O)CO6)C(=O)O4)C3)c2c1` [Example 28, 6-((R)-5-{3-[(3-fluoro-6-methoxy-quinolin-4-ylmethyl)-amino]-azetidin-1-ylmethyl}-2-oxo-oxazolidin-3-yl)-4H-benzo[1,4]oxazin-3-one], the MIC was at most 0.031 µg/mL.
In the case of `COc1ccc2nccc([C@@H](O)[C@H](O)C3CCN(C[C@@H]4CN(c5ccc6c(c5)NC(=O)CS6)C(=O)O4)C3)c2n1` (mixture of isomers) [Example 11, 6-((R)-5-{(RS)-3-[(1R,2R)-1,2-dihydroxy-2-(6-methoxy-[1,5]naphthyridin-4-yl)-ethyl]-pyrrolidin-1-ylmethyl}-2-oxo-oxazolidin-3-yl)-4H-benzo[1,4]thiazin-3-one], the MIC is reported as 0.125 µg/mL.
`COc1ccc2ncnc(O[C@H]3C[C@@H](CN=[N+]=[N-])N(C[C@@H]4CN(c5ccc6c(c5)NC(=O)CS6)C(=O)O4)C3)c2c1` [Example 6, 6-{(R)-5-[(2S,4S)-2-azidomethyl-4-(6-methoxy-quinazolin-4-yloxy)-pyrrolidin-1-ylmethyl]-2-oxo-oxazolidin-3-yl}-4H-benzo[1,4]thiazin-3-one] showed an MIC of at most 0.031 µg/mL.
Work on `O=C1CSc2ccc(N3C[C@@H](CN4CC(Nc5ccnc6ccc(F)cc56)C4)OC3=O)cc2N1` [Example 39, 6-{(R)-5-[3-(6-fluoro-quinolin-4-ylamino)-azetidin-1-ylmethyl]-2-oxo-oxazolidin-3-yl}-4H-benzo[1,4]thiazin-3-one] yielded an MIC of 0.063 µg/mL (≈ 0.131 µM).
With `COc1ccc2nccc(NCC3CN(C[C@@H]4CN(c5ccc6c(c5)NC(=O)CS6)C(=O)O4)C3)c2n1` [Example 14, 6-((R)-5-{3-[(6-methoxy-[1,5]naphthyridin-4-ylamino)-methyl]-azetidin-1-ylmethyl}-2-oxo-oxazolidin-3-yl)-4H-benzo[1,4]thiazin-3-one] the MIC was at most 0.031 µg/mL.
Compound `COc1ccc2ncnc(OC3CCN(C[C@@H]4CN(c5ccc6c(c5)OCCO6)C(=O)O4)C3)c2c1` (mixture of isomers) [Example 4, (R)-3-(2,3-dihydro-benzo[1,4]dioxin-6-yl)-5-[(RS)-3-(6-methoxy-quinazolin-4-yloxy)-pyrrolidin-1-ylmethyl]-oxazolidin-2-one] has an MIC of at most 0.031 µg/mL.
Work on `COc1ccc2ncnc(OC3CCN(C[C@@H]4CN(c5cc6c(nn5)OCCO6)C(=O)O4)C3)c2c1` (mixture of isomers) [Example 33, (R)-3-(6,7-dihydro-[1,4]dioxino[2,3-c]pyridazin-3-yl)-5-[(RS)-3-(6-methoxy-quinazolin-4-yloxy)-pyrrolidin-1-ylmethyl]-oxazolidin-2-one] yielded an MIC of 0.25 µg/mL.
Work on `COc1ccc2ncnc(O[C@@H]3CN(C[C@@H]4CN(c5ccc6c(c5)NC(=O)CS6)C(=O)O4)C[C@H]3N)c2c1` (relative stereo) [Example 18, 6-{(R)-5-[(3R*,4R*)-3-amino-4-(6-methoxy-quinazolin-4-yloxy)-pyrrolidin-1-ylmethyl]-2-oxo-oxazolidin-3-yl}-4H-benzo[1,4]thiazin-3-one] yielded an MIC of at most 0.031 µg/mL.
For `COc1ccc2nccc(CNC3CN(C[C@@H]4CN(c5ccc6c(c5)NC(=O)CO6)C(=O)O4)C3)c2c1` [Example 29, 6-((R)-5-{3-[(6-methoxy-quinolin-4-ylmethyl)-amino]-azetidin-1-ylmethyl}-2-oxo-oxazolidin-3-yl)-4H-benzo[1,4]oxazin-3-one], the MIC was 0.063 µg/mL (≈ 0.129 µM).
Compound `COc1ccc2nccc(NC3CCN(C[C@@H]4CN(c5ccc6c(c5)NC(=O)CS6)C(=O)O4)CC3)c2c1` [Example 41, 6-{(R)-5-[4-(6-methoxy-quinolin-4-ylamino)-piperidin-1-ylmethyl]-2-oxo-oxazolidin-3-yl}-4H-benzo[1,4]thiazin-3-one] has an MIC of 0.5 µg/mL (≈ 0.962 µM).
With `COc1ccc2ncnc(O[C@H]3CN(C[C@@H]4CN(c5ccc6c(c5)NC(=O)CS6)C(=O)O4)C[C@H]3O)c2c1` (relative stereo) [Example 21, 6-{(R)-5-[(3R*,4S*)-3-hydroxy-4-(6-methoxy-quinazolin-4-yloxy)-pyrrolidin-1-ylmethyl]-2-oxo-oxazolidin-3-yl}-4H-benzo[1,4]thiazin-3-one] the MIC was at most 0.031 µg/mL.
`COc1ccc2nccc(OC3CN(C[C@@H]4CN(c5ccc6c(c5)NC(=O)CS6)C(=O)O4)C3)c2n1` [Example 1, 6-{(R)-5-[3-(6-methoxy-[1,5]naphthyridin-4-yloxy)-azetidin-1-ylmethyl]-2-oxo-oxazolidin-3-yl}-4H-benzo[1,4]thiazin-3-one] was tested, and the MIC was at most 0.031 µg/mL.
Compound `O=C1COc2ccc(N3C[C@@H](CN4CC(Nc5ccnc6ccc(F)cc56)C4)OC3=O)cc2N1` [Example 43, 6-{(R)-5-[3-(6-fluoro-quinolin-4-ylamino)-azetidin-1-ylmethyl]-2-oxo-oxazolidin-3-yl}-4H-benzo[1,4]oxazin-3-one] has an MIC of 0.25 µg/mL (≈ 0.539 µM).
